This is an account of results in PMC7822874, “Chemoprotective antimalarials identified through quantitative high-throughput screening of Plasmodium blood and liver stage parasites” (Scientific Reports, 2021).

Read-outs that look alike come from different tables or passages of the source.

As usually defined, the AC50 is the concentration giving half of the maximal activity seen.

What all share (type): cell-based, Plasmodium falciparum
Common to all, as to details: Plasmodium falciparum

The subject of test [1] is P. falciparum Dd2 Cytb G131S. The test is described as follows: SYBR Green ABS proliferation assay, NCGC00374598 selected clone C11. The gist of the method:
(§1)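 Drug-selected Dd2 clones bearing the cytochrome b mutation were cultured at 37 °C under 5% CO2, 5% O2, 90% N2. Growth was read at 72 h by SYBR Green-I fluorescence, normalized to controls as percent response.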

Test [2] concerns P. falciparum Dd2 Cytb V259L. The test is described as follows: SYBR Green ABS proliferation assay, NCGC00473217 selected clone F06. Summed up: as §1
The test system of test [3] is P. falciparum Dd2 Cytb A122D. The test is described as follows: SYBR Green ABS proliferation assay, NCGC00473217 selected clone F12. As for the experimental part:
(§2) As resistance selection studies implicated the parasite cytochrome bc1 complex in mediating reduced parasite susceptibility to both NCGC00473217 and NCGC00374598, we leveraged these drug-selected parasites to test for altered drug response to a panel of antimalarial compounds.
(§3) The P. falciparum parasite Dd2 line was cultured in vitro using standard conditions. […] Tissue culture flasks and assay plates were incubated at 37 °C under a gas mixture of 5% CO2, 5% O2 and 90% N2. […] Significant differences were assessed using two-sided Student’s t-tests. All HTS assays were stopped and read at 72 h. Percent response values represent relative growth as judged by SYBR Green-I fluorescence intensity values normalized to controls.
(§4) Fresh uninfected RBCs (0.5% hematocrit) were added on day 7 and media was changed every other day. […] Resistant parasites were maintained under drug media at a volume of 50 mL until a high parasitemia (> 5%) was achieved. Aliquots of the bulk resistant cultures were frozen in cryovials before cloning by limiting dilution in 96-well plates (seeded at 0.25 or 0.5 parasites/well)[70]. After 3 weeks of cloning, we screened for positive wells by flow cytometry with SYBR Green-stained cells. […] Parasites were harvested by saponin lysis at the trophozoite stage and genomic DNA was extracted using the QIAamp DNA Blood Midi Kit (Qiagen, Germantown, MD)[71].

The subject of test [4] is P. falciparum Dd2 Cytb F123L. The test is described as follows: SYBR Green ABS proliferation assay, NCGC00473217 selected clone G08. As for the experimental part: as §2, §3, §4
Setting [5] is: DD2, cytochrome b mutant line, second value triple, c6, […], read-out: log AC50, mean (converted).
The mark [6] stands for this setting: DD2, cytochrome b mutant line, third value triple, c9, […], read-out: log AC50, mean (converted).
The mark [7] stands for this setting: DD2, cytochrome b mutant line, fourth value triple, c12, […], read-out: log AC50, mean (converted).
Where [8] appears, read: DD2, cytochrome b mutant line, fifth value triple, c15, […], read-out: log AC50, mean (converted).
Setting [9] is: DD2, […], averaged from three independent replicates, top concentration 29 µM, read-out: Average AC50 (Log[M]), NCGC00374598 clone C11 (Cytb G131S) (converted).
[10] abbreviates: DD2, […], averaged from three independent replicates, top concentration 29 µM, read-out: Average AC50 (Log[M]), NCGC00473217 clone F06 (Cytb V259L) (converted).
The mark [11] stands for this setting: DD2, […], averaged from three independent replicates, top concentration 29 µM, read-out: Average AC50 (Log[M]), NCGC00473217 clone F12 (Cytb A122D) (converted).
Setting [12] is: DD2, […], averaged from three independent replicates, top concentration 29 µM, read-out: Average AC50 (Log[M]), NCGC00473217 clone G08 (Cytb F123L) (converted).

Take `CCCN1C(CC(C)C)=N[S+](=O)([O-])c2cc(NCc3ccc(F)cc3)ccc21` [NCGC00531784-01]: the half-maximal activity concentration (AC50) is 4.15e-06 M in test [1] (setting [5]), 1.19e-05 M in test [2] (setting [6]), 1.42e-05 M in test [3] (setting [7]) and 1.26e-05 M in test [4] (setting [8]).
The like results for `COc1ccc(-c2nc(C3CC3)nc3c2CCN(Cc2ccc(F)cc2)CC3)cc1` [NCGC00374624-01] were, in that order, 8.73e-06 M, 9.79e-06 M, 1.1e-05 M and 9.08e-06 M.
On the same counts, the results for `CCc1nc2c(c(-c3ccc(O)cc3)n1)CCN(Cc1cccn1C)CC2` [NCGC00480312-01] are 1.88e-05 M, 1.74e-05 M, 1.44e-05 M and 1.14e-05 M.
On the same counts, the results for `CCCN1C(CC(C)C)=N[S+](=O)([O-])c2cc(NC(=O)Cc3cccs3)ccc21` [NCGC00531815-01] are 1e-05 M, 7.67e-06 M, 5.22e-06 M and 5.64e-06 M.
In the case of `CCCN1C(CC2CCC2)=N[S+](=O)([O-])c2cc(NC(=O)c3cccs3)ccc21` [NCGC00537664-01], the AC50 in test [1] (setting [5]) is 4.66e-07 M; in test [2] (setting [6]), 1.19e-06 M; in test [3] (setting [7]) it was 1.36e-06 M; in test [4] (setting [8]) it was 1.78e-06 M.
With `CCCN1C(CC(C)C)=N[S+](=O)([O-])c2cc(NC(=O)c3ccc(F)c(Cl)c3)ccc21` [NCGC00531769-01], the AC50 in test [1] (setting [5]) was 2.82e-06 M; in test [2] (setting [6]), 3.7e-06 M; in test [3] (setting [7]) it was 7.38e-06 M; in test [4] (setting [8]), 3.99e-07 M.
On the same counts, the results for `CCCN1C(CC(C)C)=N[S+](=O)([O-])c2cc(NCc3cccs3)ccc21` [NCGC00531814-01] are 1.59e-05 M, 1.78e-05 M, 1.93e-05 M and 1.59e-05 M.
The like results for `COc1ccc(-c2nc(C3CC3)nc3c2CCN(C(=O)c2ccc(C(F)(F)F)cc2)CC3)cc1` [NCGC00374638-01] were, in that order, 1.19e-05 M, 1.38e-05 M, 1.28e-05 M and 1.06e-05 M.
On the same counts, the results for `CCCN1C(CC2CCOCC2)=N[S+](=O)([O-])c2cc(NC(=O)c3ccc(F)cc3)ccc21` [NCGC00537661-01] are 2e-07 M, 5.02e-06 M, 5.86e-06 M and 4.84e-06 M.
Regarding `CCc1nc2c(c(-c3ccc(Cl)cc3)n1)CCN(Cc1ccc(NC(C)=O)cc1)CC2` [NCGC00476919-01], the AC50 in test [1] (setting [5]) was 1.28e-05 M; in test [2] (setting [6]), 1.5e-05 M; in test [3] (setting [7]), 1.14e-05 M; in test [4] (setting [8]) it was 2.03e-06 M.
Turning to `COc1ccc(-c2nc(C3CC3)nc3c2CCN(Cc2ccc(C#N)cc2)CC3)cc1` [NCGC00374656-01], the AC50 in test [1] (setting [5]) was 7.5e-06 M; in test [2] (setting [6]), 1.14e-05 M; in test [3] (setting [7]), 8.41e-06 M; in test [4] (setting [8]) it was 8.09e-06 M.
The like results for `CCCN1C(CC(C)C)=N[S+](=O)([O-])c2cc(NC(=O)c3ccc(F)c(Br)c3)ccc21` [NCGC00531767-01] were, in that order, 2.08e-06 M, 1.06e-06 M, 8.61e-06 M and 6.32e-06 M.
On the same counts, the results for `CCCN1C(CC(F)(F)F)=N[S+](=O)([O-])c2cc(NC(=O)c3cccs3)ccc21` [NCGC00532340-01] are 6.32e-06 M, 2e-06 M, 7.1e-06 M and 7.1e-06 M.
On the same counts, the results for `CCCN1C(CC(C)C)=N[S+](=O)([O-])c2cc(NC(=O)c3ccc(Cl)cc3)ccc21` [NCGC00531775-01] are 2e-07 M, 6.32e-07 M, 2.24e-07 M and 3.17e-06 M.
`CCCN1C(CC(C)C)=N[S+](=O)([O-])c2cc(NC(C)=O)ccc21` [NCGC00521093-01]: the AC50 in test [1] (setting [9]) is 2e-05 M; in test [2] (setting [10]), 8.93e-06 M; in test [3] (setting [11]), 1.04e-05 M; in test [4] (setting [12]), 7.96e-06 M.
`COc1ccc(-c2nc(C(C)C)nc3c2CCN(C(=O)c2cccc(Cl)c2)CC3)cc1` [NCGC00479504-01]: the concentration at half-maximal activity (AC50) in test [1] (setting [5]) was 1.55e-05 M; in test [2] (setting [6]) it was 1.68e-05 M; in test [3] (setting [7]), 1.61e-05 M; in test [4] (setting [8]), 1.19e-05 M.
The like results for `CCCN1C(CC(C)C)=N[S+](=O)([O-])c2cc(NC(=O)c3ccc(Br)c(F)c3)ccc21` [NCGC00531761-01] were, in that order, 1.12e-06 M, 3.36e-06 M, 1e-06 M and 7.96e-08 M.
On the same counts, the results for `COc1ccc(CN2CCc3nc(C4CC4)nc(-c4ccc(O)cc4)c3CC2)cc1` [NCGC00480355-01] are 1.06e-05 M, 1.61e-05 M, 1.19e-05 M and 1.23e-05 M.
The like results for `CCCN1C(CC2CCOCC2)=N[S+](=O)([O-])c2cc(NC(=O)c3cccs3)ccc21` [NCGC00537663-01] were, in that order, 3.7e-06 M, 4.66e-06 M, 2.82e-06 M and 3.56e-06 M.
Consider `COc1cc(OC)c(OC)cc1CN1CCc2nc(N(C)C)[nH]c(=O)c2CC1` [NCGC00440589-01], for which the AC50 was 2.66e-06 M in test [1] (setting [5]), 2.76e-06 M in test [2] (setting [6]), 1.61e-06 M in test [3] (setting [7]) and 2.03e-06 M in test [4] (setting [8]).
On the same counts, the results for `CCCN1C(Cc2ccccc2)=N[S+](=O)([O-])c2cc(NC(=O)c3cccs3)ccc21` [NCGC00532337-01] are 3.05e-06 M, 7.96e-07 M, 7.1e-06 M and 1e-05 M.
The like results for `CCCN1C(CC2CCCCC2)=N[S+](=O)([O-])c2cc(NC(=O)c3ccc(F)cc3)ccc21` [NCGC00532335-01] were, in that order, 8.61e-07 M, 5.32e-06 M, 3.3e-06 M and 2.82e-07 M.
On the same counts, the results for `O=C(c1cccc(Cl)c1)N1CCc2nc(C3CC3)nc(-c3ccc(O)cc3)c2CC1` [NCGC00480367-01] are 1.06e-05 M, 2.66e-06 M, 1.55e-05 M and 1.28e-06 M.
Regarding `CCCN1C(CC(C)C)=N[S+](=O)([O-])c2cc(NC(=O)c3cn(C)cn3)ccc21` [NCGC00521148-01], the concentration at half-maximal activity (AC50) in test [1] (setting [9]) is 2.67e-06 M; in test [2] (setting [10]), 1.17e-05 M; in test [3] (setting [11]), 1.12e-05 M; in test [4] (setting [12]) it was 7.1e-06 M.
As for `COc1ccc(-c2nc(C(C)C)nc3c2CCN(C(=O)Cc2cccc(Cl)c2)CC3)cc1` [NCGC00479508-01], the AC50 in test [1] (setting [5]) is 1.33e-05 M; in test [2] (setting [6]), 1.74e-05 M; in test [3] (setting [7]), 1.44e-05 M; in test [4] (setting [8]), 1.28e-05 M.
`COc1ccc(-c2nc(C3CC3)nc3c2CCN(S(=O)(=O)c2ccccc2)CC3)cc1` [NCGC00374642-01]: the AC50 in test [1] (setting [5]) is 1.33e-05 M; in test [2] (setting [6]), 1.61e-05 M; in test [3] (setting [7]), 1.44e-05 M; in test [4] (setting [8]) it was 1.61e-05 M.
As to `CCCN1C(CC(C)C)=N[S+](=O)([O-])c2cc(NCc3ccccc3)ccc21` [NCGC00531800-01], the half-maximal activity concentration (AC50) in test [1] (setting [5]) is 1e-05 M; in test [2] (setting [6]), 1.12e-05 M; in test [3] (setting [7]), 9.46e-06 M; in test [4] (setting [8]), 1.42e-05 M.
`CCCN1C(CC(C)C)=N[S+](=O)([O-])c2cc(NC(=O)c3cccnn3)ccc21` [NCGC00521144-01]: the concentration at half-maximal activity (AC50) in test [1] (setting [9]) was 2e-05 M; in test [2] (setting [10]), 2.82e-06 M; in test [3] (setting [11]) it was 2.67e-06 M; in test [4] (setting [12]), 1.12e-05 M.
Regarding `CCCN1C(COC)=N[S+](=O)([O-])c2cc(NC(=O)c3cccs3)ccc21` [NCGC00532347-01], the concentration at half-maximal activity (AC50) was 1.78e-06 M in test [1] (setting [5]), 8.93e-06 M in test [2] (setting [6]), 8.93e-06 M in test [3] (setting [7]) and 7.96e-09 M in test [4] (setting [8]).
In the case of `CCCN1C(CC(C)C)=N[S+](=O)([O-])c2cc(NC(=O)c3c(Cl)cccc3Cl)ccc21` [NCGC00531779-01], the AC50 in test [1] (setting [5]) is 1.85e-06 M; in test [2] (setting [6]), 1.19e-05 M; in test [3] (setting [7]), 1.59e-05 M; in test [4] (setting [8]), 1.53e-05 M.
